# Reference: patent US12077503B2, “Substituted cyclic amides and their use as herbicides” (FMC CORPORATION, priority 2015, dated 2024)
# Columns and labels:
# Assay type in all cases: in vivo
# Kochia (Kochia scoparia) [1] = test: Test A postemergence; settings: Bassia scoparia, post-emergence, 240 h, postemergence, read-out: Kochia plant response rating; for pest or weed control at 125 g/ha: 125 g ai/ha, visual injury on 0 to 100 scale (0 no effect, 100 complete control), approx. 10 d; for pest or weed control at 500 g/ha: 500 g ai/ha, 0 to 100 scale, 0 is no effect, 100 is complete control
# Method in brief: (§1)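 Each rating is a visual injury score from 0 to 100 given about 10 d after treatment, judged against untreated controls kept alongside in the greenhouse. In loam soil–sand blend, seeds got a preemergence directed soil spray, while postemergence plants were 2 to 10 cm tall at spraying.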
# [2] = tested on: wheat (Triticum aestivum); test: Test A postemergence; settings: Triticum aestivum, post-emergence, 240 h, postemergence, read-out: Wheat plant response rating; for plant injury at 125 g/ha: 125 g ai/ha, visual injury on 0 to 100 scale (0 no effect, 100 complete control), approx. 10 d; for plant injury at 500 g/ha: 500 g ai/ha, 0 to 100 scale, 0 is no effect, 100 is complete control
# Method in brief: as §1
# [3] = tested on: blackgrass (Alopecurus myosuroides); test: Test A postemergence; settings: Alopecurus myosuroides, post-emergence, 240 h, postemergence, read-out: Blackgrass plant response rating; for pest or weed control at 125 g/ha: 125 g ai/ha, visual injury on 0 to 100 scale (0 no effect, 100 complete control), approx. 10 d; for pest or weed control at 500 g/ha: 500 g ai/ha, 0 to 100 scale, 0 is no effect, 100 is complete control
# Method in brief: as §1
# [4] = tested on: ryegrass, Italian (Italian ryegrass, Lolium multiflorum); test: Test A postemergence; settings: Lolium multiflorum, post-emergence, 240 h, postemergence, read-out: Ryegrass, Italian plant response rating; for pest or weed control at 125 g/ha: 125 g ai/ha, visual injury on 0 to 100 scale (0 no effect, 100 complete control), approx. 10 d; for pest or weed control at 500 g/ha: 500 g ai/ha, 0 to 100 scale, 0 is no effect, 100 is complete control
# Method in brief: as §1
# [5] = tested on: Galium (catchweed bedstraw, Galium aparine); test: Test A postemergence; settings: Galium, post-emergence, 240 h, postemergence, read-out: Galium plant response rating; for pest or weed control at 125 g/ha: 125 g ai/ha, visual injury on 0 to 100 scale (0 no effect, 100 complete control), approx. 10 d; for pest or weed control at 500 g/ha: 500 g ai/ha, 0 to 100 scale, 0 is no effect, 100 is complete control
# Method in brief: as §1
# [6] = tested on: barnyardgrass (Echinochloa crus-galli); test: Test A postemergence; settings: Echinochloa crus-galli, post-emergence, 240 h, postemergence, read-out: Barnyardgrass plant response rating; for pest or weed control at 125 g/ha: 125 g ai/ha, visual injury on 0 to 100 scale (0 no effect, 100 complete control), approx. 10 d; for pest or weed control at 500 g/ha: 500 g ai/ha, 0 to 100 scale, 0 is no effect, 100 is complete control
# Method in brief: as §1
# corn (Zea mays) = test: Test A postemergence; settings: Zea mays, post-emergence, 240 h, postemergence, read-out: Corn plant response rating; for plant injury at 125 g/ha: 125 g ai/ha, visual injury on 0 to 100 scale (0 no effect, 100 complete control), approx. 10 d; for plant injury at 500 g/ha: 500 g ai/ha, 0 to 100 scale, 0 is no effect, 100 is complete control
# Method in brief: as §1
# [7] = tested on: ragweed (common ragweed, Ambrosia elatior); test: Test A postemergence; settings: Ambrosia artemisiifolia, post-emergence, 240 h, postemergence, read-out: Ragweed plant response rating; for pest or weed control at 125 g/ha: 125 g ai/ha, visual injury on 0 to 100 scale (0 no effect, 100 complete control), approx. 10 d; for pest or weed control at 500 g/ha: 500 g ai/ha, 0 to 100 scale, 0 is no effect, 100 is complete control
# Method in brief: as §1
# [8] = tested on: pigweed (Amaranthus retroflexus); test: Test A postemergence; settings: Amaranthus retroflexus, post-emergence, 240 h, postemergence, read-out: Pigweed plant response rating; for pest or weed control at 125 g/ha: 125 g ai/ha, visual injury on 0 to 100 scale (0 no effect, 100 complete control), approx. 10 d; for pest or weed control at 500 g/ha: 500 g ai/ha, 0 to 100 scale, 0 is no effect, 100 is complete control
# Method in brief: as §1
# Kochia (Kochia scoparia) [9] = test: Test A preemergence; settings: Bassia scoparia, pre-emergence, 240 h, preemergence, read-out: Kochia plant response rating; for pest or weed control at 125 g/ha: 125 g ai/ha, 0 to 100 scale where 0 is no effect and 100 is complete control, approx. 10 d; for pest or weed control at 500 g/ha: 500 g ai/ha, visual injury rating about 10 d after treatment, 0 to 100 scale (0 no effect, 100 complete control)
# Method in brief: as §1
# [10] = tested on: ryegrass, Italian (Italian ryegrass, Lolium multiflorum); test: Test A preemergence; settings: Lolium multiflorum, pre-emergence, 240 h, preemergence, read-out: Ryegrass, Italian plant response rating; for pest or weed control at 125 g/ha: 125 g ai/ha, 0 to 100 scale where 0 is no effect and 100 is complete control, approx. 10 d; for pest or weed control at 500 g/ha: 500 g ai/ha, visual injury rating about 10 d after treatment, 0 to 100 scale (0 no effect, 100 complete control)
# Method in brief: as §1
# [11] = tested on: barnyardgrass (Echinochloa crus-galli); test: Test A preemergence; settings: Echinochloa crus-galli, pre-emergence, 240 h, preemergence, read-out: Barnyardgrass plant response rating; for pest or weed control at 125 g/ha: 125 g ai/ha, 0 to 100 scale where 0 is no effect and 100 is complete control, approx. 10 d; for pest or weed control at 500 g/ha: 500 g ai/ha, visual injury rating about 10 d after treatment, 0 to 100 scale (0 no effect, 100 complete control)
# Method in brief: as §1
# [12] = tested on: ragweed (common ragweed, Ambrosia elatior); test: Test A preemergence; settings: Ambrosia artemisiifolia, pre-emergence, 240 h, preemergence, read-out: Ragweed plant response rating; for pest or weed control at 125 g/ha: 125 g ai/ha, 0 to 100 scale where 0 is no effect and 100 is complete control, approx. 10 d; for pest or weed control at 500 g/ha: 500 g ai/ha, visual injury rating about 10 d after treatment, 0 to 100 scale (0 no effect, 100 complete control)
# Method in brief: as §1
# [13] = tested on: giant foxtail (Setaria faberii); test: Test A preemergence; settings: Setaria faberi, pre-emergence, 240 h, preemergence, read-out: Foxtail, Giant plant response rating; for pest or weed control at 125 g/ha: 125 g ai/ha, 0 to 100 scale where 0 is no effect and 100 is complete control, approx. 10 d; for pest or weed control at 500 g/ha: 500 g ai/ha, visual injury rating about 10 d after treatment, 0 to 100 scale (0 no effect, 100 complete control)
# Method in brief: as §1
# [14] = tested on: pigweed (Amaranthus retroflexus); test: Test A preemergence; settings: Amaranthus retroflexus, pre-emergence, 240 h, preemergence, read-out: Pigweed plant response rating; for pest or weed control at 125 g/ha: 125 g ai/ha, 0 to 100 scale where 0 is no effect and 100 is complete control, approx. 10 d; for pest or weed control at 500 g/ha: 500 g ai/ha, visual injury rating about 10 d after treatment, 0 to 100 scale (0 no effect, 100 complete control)
Compound,pest or weed control at 125 g/ha (Kochia (Kochia scoparia) [1]) [%],pest or weed control at 500 g/ha (Kochia (Kochia scoparia) [1]) [%],plant injury at 125 g/ha [2] [%],plant injury at 500 g/ha [2] [%],pest or weed control at 125 g/ha [3] [%],pest or weed control at 500 g/ha [3] [%],pest or weed control at 125 g/ha [4] [%],pest or weed control at 500 g/ha [4] [%],pest or weed control at 125 g/ha [5] [%],pest or weed control at 500 g/ha [5] [%],pest or weed control at 125 g/ha [6] [%],pest or weed control at 500 g/ha [6] [%],plant injury at 125 g/ha (corn (Zea mays)) [%],plant injury at 500 g/ha (corn (Zea mays)) [%],pest or weed control at 125 g/ha [7] [%],pest or weed control at 500 g/ha [7] [%],pest or weed control at 125 g/ha [8] [%],pest or weed control at 500 g/ha [8] [%],pest or weed control at 125 g/ha (Kochia (Kochia scoparia) [9]) [%],pest or weed control at 500 g/ha (Kochia (Kochia scoparia) [9]) [%],other results
CN1C[C@H](c2cc(F)cc(F)c2)[C@@H](C(=O)Nc2ccncc2F)C1=O [Compound 1095],0,0,0,0,0,0,0,0,0,0,0,0,0,0,0,0,0,0,0,0,pest or weed control at 125 g/ha [10]: 0%; pest or weed control at 500 g/ha [10]: 0%; pest or weed control at 125 g/ha [11]: 0%; pest or weed control at 500 g/ha [11]: 60%; pest or weed control at 125 g/ha [12]: 0%; pest or weed control at 500 g/ha [12]: 0%; pest or weed control at 125 g/ha [13]: 0%; pest or weed control at 500 g/ha [13]: 90%; pest or weed control at 125 g/ha [14]: 0%; pest or weed control at 500 g/ha [14]: 30%
CN1C[C@H](c2cc(F)cc(F)c2)[C@@H](C(=O)Nc2cnccc2Cl)C1=O [Compound 1096],0,0,0,0,0,0,0,0,0,0,0,0,0,0,0,0,0,0,0,0,pest or weed control at 125 g/ha [10]: 0%; pest or weed control at 500 g/ha [10]: 0%; pest or weed control at 125 g/ha [11]: 0%; pest or weed control at 500 g/ha [11]: 0%; pest or weed control at 125 g/ha [12]: 0%; pest or weed control at 500 g/ha [12]: 0%; pest or weed control at 125 g/ha [13]: 0%; pest or weed control at 500 g/ha [13]: 0%; pest or weed control at 125 g/ha [14]: 0%; pest or weed control at 500 g/ha [14]: 0%
Cc1cc([C@H]2CN(C)C(=O)[C@@H]2C(=O)Nc2ccc(F)cc2F)ccc1Br [Compound 1100],0,20,0,20,0,20,20,20,0,20,60,70,0,20,0,0,0,0,50,60,pest or weed control at 125 g/ha [10]: 0%; pest or weed control at 500 g/ha [10]: 30%; pest or weed control at 125 g/ha [11]: 90%; pest or weed control at 500 g/ha [11]: 90%; pest or weed control at 125 g/ha [12]: 0%; pest or weed control at 500 g/ha [12]: 0%; pest or weed control at 125 g/ha [13]: 90%; pest or weed control at 500 g/ha [13]: 90%; pest or weed control at 125 g/ha [14]: 0%; pest or weed control at 500 g/ha [14]: 0%
Cc1cc([C@H]2CN(C)C(=O)[C@@H]2C(=O)Nc2ccc(F)c(F)c2F)ccc1Br [Compound 1101],30,60,0,50,0,30,20,60,50,60,70,80,30,70,0,0,30,50,60,70,pest or weed control at 125 g/ha [10]: 30%; pest or weed control at 500 g/ha [10]: 70%; pest or weed control at 125 g/ha [11]: 90%; pest or weed control at 500 g/ha [11]: 90%; pest or weed control at 125 g/ha [12]: 0%; pest or weed control at 500 g/ha [12]: 40%; pest or weed control at 125 g/ha [13]: 90%; pest or weed control at 500 g/ha [13]: 90%; pest or weed control at 125 g/ha [14]: 0%; pest or weed control at 500 g/ha [14]: 20%
